According to PubChem BioAssay (NCI):
Several values for one entry are separate records, joined by “and”; a condition that tells them apart may be missing. Identical values can stand only once.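 A five-concentration, 48-hour dose response in 96-well plates underlies each endpoint, interpolated linearly between surrounding concentrations. GI50 marks 50% less growth. The concentration for full growth arrest is given as TGI.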

Columns and labels:
Assay in all cases: DTP human tumour cell line panel, 48 h
[1] = system: RXF 393 renal
[2] = system: IGROV1 ovarian
[3] = system: HCT-116 colon
[4] = system: T-47D breast
[5] = system: HCT-15 colon
[6] = system: KM12 colon
[7] = system: MOLT-4 leukemia
[8] = system: U251 CNS
[9] = system: EKVX NSCLC
[10] = system: MCF7 breast
[11] = system: PC-3 prostate

Structure (SMILES)	TGI [1] [µM]	TGI [2]	TGI [3] [µM]	TGI [4]	TGI [5]	TGI [6]	TGI [7]	TGI [8]	TGI [9]	TGI [10]	TGI [11]	GI50 [2] [µM]	GI50 [3] [µM]	GI50 [4] [µM]	GI50 [5] [µM]	GI50 [6] [µM]	GI50 [7] [µM]	GI50 [8] [µM]	GI50 [9] [µM]	GI50 [10] [µM]
Cc1cc(C)c2c(=O)n(CC(O)CN3CCN(c4ncccn4)CC3)sc2n1 (configuration not stated)	33.6	> 100 µM	29	52.9 µM	35.4 µM	44.6 µM	22.6 µM	31.7 µM	29.5 µM	31.8 µM	32.8 µM	–	–	–	–	–	–	–	–	–
Nc1nc(-c2ccccc2)cc(-c2ccc(F)cc2)c1-c1ccc(Cl)cc1	> 100	> 100 µM	> 100	> 100 µM	> 100 µM	> 100 µM	> 100 µM	> 100 µM	> 100 µM	> 100 µM	> 100 µM	–	–	–	–	–	–	–	–	–
COC(=O)c1ccc2c(c1)CCN2C(=O)c1cc2c(cc1Br)OCO2	4.72	50 µM and > 100 µM	–	50 µM and 51.9 µM	50 µM and 23.5 µM	50 µM and > 100 µM	12.1 µM and > 100 µM	5.12 µM and 20.6 µM	50 µM and > 100 µM	50 µM and > 100 µM	5.52 µM and 20.6 µM	0.455	0.677	0.982	0.378	0.532	0.896	0.512	3.77	0.567
CCOC(=O)C(C(N)=O)c1nc2cc([N+](=O)[O-])ccc2nc1/C=C(\O)c1ccc(C)cc1 (configuration not stated)	37.1	43 µM	55.4	> 100 µM	> 82.2 µM	> 100 µM	1.39 µM	33.5 µM	> 100 µM	> 60.5 µM	40.4 µM	–	–	–	–	–	–	–	–	–
N#CCCN(CCN(CCN(C(=O)Nc1ccccc1)c1ccccc1)C(=O)Nc1ccccc1)C(=O)Nc1ccccc1	> 100	> 100 µM	> 100	> 100 µM	> 100 µM	> 100 µM	> 100 µM	> 100 µM	> 100 µM	> 100 µM	> 100 µM	–	–	–	–	–	–	–	–	–
CCCCC(=O)Nc1ccc2cc(C(=O)OC)c(=O)[nH]c2n1	> 100	> 100 µM	> 100	> 100 µM	> 100 µM	> 100 µM	> 100 µM	> 100 µM	> 100 µM	> 100 µM	> 100 µM	–	–	–	–	–	–	–	–	–
CCCCc1ccc(Nc2nc(N)c3[nH]cnc3n2)cc1	–	27.9 µM	32.3	> 100 µM	66.1 µM	36.5 µM	40.2 µM	48 µM	45.4 µM	42.4 µM	39.7 µM	–	–	–	–	–	–	–	–	–
NC(=O)c1ccc(N)nc1	0.864	> 400 µM	> 400	> 400 µM	> 400 µM	> 400 µM	> 400 µM	> 400 µM	> 400 µM	> 400 µM	> 400 µM	–	–	–	–	–	–	–	–	–
C=CCn1c(-c2ccc(N=NNc3ccc(-c4n[nH]c(=S)n4CC=C)cc3)cc2)n[nH]c1=S	37.8	15.1 µM	–	4.76 µM	> 100 µM	–	–	17.5 µM	> 100 µM	> 100 µM	> 100 µM	–	–	–	–	–	–	–	–	–
NC(=O)c1ncn(C2CCC(CP(=O)(O)O)C2)c1N (configuration not stated)	> 100	> 100 µM	> 100	> 100 µM	> 100 µM	> 100 µM	> 100 µM	> 100 µM	> 100 µM	> 100 µM	> 100 µM	–	–	–	–	–	–	–	–	–
O=C(O)c1cc(/C=C/c2ccc(O)c(O)c2)ccc1O	> 100	> 100 µM	> 100	> 100 µM	> 100 µM	> 100 µM	> 100 µM	> 100 µM	> 100 µM	51.4 µM	> 100 µM	–	–	–	–	–	–	–	–	–
Cc1cc(S(=O)(=O)Nc2nc(N)n(-c3ccccc3)n2)c(S)cc1Cl	> 100	> 100 µM	> 100	> 100 µM	> 100 µM	> 100 µM	> 100 µM	> 100 µM	> 100 µM	> 100 µM	> 100 µM	–	–	–	–	–	–	–	–	–
Brc1ccc2c(c1)[C@H]1CCc3c([nH]c4ccccc34)[C@H]1N2	33.4	15.6 µM	21	16.8 µM	–	18.6 µM	16.8 µM	21.7 µM	22.6 µM	18.6 µM	22.4 µM	–	–	–	–	–	–	–	–	–
C/C(=N\NC(=S)N/N=C(\C)c1ccccn1)c1ccccn1	–	> 100 µM	> 100	> 100 µM	> 100 µM	> 100 µM	5.9 µM	> 100 µM	84.3 µM	> 100 µM	> 100 µM	–	–	–	–	–	–	–	–	–
CCOC(=O)C(NC(=O)Nc1ccccc1)(Nc1cccc(Cl)c1)C(F)(F)F (configuration not stated)	> 100	> 100 µM	> 100	> 100 µM	> 100 µM	> 100 µM	> 100 µM	> 100 µM	> 100 µM	> 100 µM	> 100 µM	–	–	–	–	–	–	–	–	–
Clc1ccc2nc3c(c(-c4ccccc4)nn3-c3ccccc3)c(-c3ccccc3)c2c1	–	> 100 µM	> 100	> 100 µM	> 100 µM	> 100 µM	> 100 µM	> 100 µM	> 100 µM	> 100 µM	> 100 µM	–	–	–	–	–	–	–	–	–
CC(CCC(=O)O)(c1cc(Br)c(O)c(Br)c1)c1cc(Br)c(O)c(Br)c1	> 100	> 100 µM	> 100	> 100 µM	> 100 µM	> 100 µM	> 100 µM	> 100 µM	> 100 µM	> 100 µM	> 100 µM	–	–	–	–	–	–	–	–	–
COc1cc(CNc2nc3cc(C(F)(F)F)ccc3nc2C(=O)O)cc(OC)c1OC	> 100	–	29	83.8 µM	> 100 µM	78.2 µM	58.1 µM	31.2 µM	57.1 µM	49.9 µM	57.9 µM	–	–	–	–	–	–	–	–	–
Cc1cc2nc(N)n[n+]([O-])c2cc1C	> 100	> 100 µM	> 100	> 100 µM	> 100 µM	> 100 µM	> 100 µM	> 100 µM	> 100 µM	> 100 µM	> 100 µM	–	–	–	–	–	–	–	–	–
COC12OC3(C4OC41)C(C(=O)O[C@H]3CO[Si](C)(C)C(C)(C)C)C2S(=O)(=O)c1ccccc1 (some centres not stated)	–	–	> 7.06	> 100 µM	> 100 µM	–	3.53 µM	> 7.83 µM	> 5.18 µM	> 100 µM	> 90.2 µM	–	–	–	–	–	–	–	–	–
